Data taken from US20150065440A1 (Progen Pharmaceuticals Limited, priority 2007, published 2015).
Like-named read-outs stand apart in the source and are kept apart here.

Key:
HEp-2 cells = experiment: Cytotoxicity assay, HEp-2; assay type: cell-based, Human; details: cell viability reduced by 50%
HSV-1 [1] = experiment: Anti-HSV screening assay (viral plaques), HSV-1; assay type: cell-based; details: 100 μg/mL, viral plaques relative to mock treated controls
Method: (§1) African green monkey kidney (GMK AH1) cells^46 were cultured in Eagle's minimum essential medium (EMEM) supplemented with 2% calf serum, 0.05% Primaton RL substance (Kraft Inc., Norwich, USA) and antibiotics. Human epidermoid carcinoma (HEp-2) cells were cultured in Dulbecco's modified EMEM (DMEM) supplemented with 10% fetal calf serum and antibiotics. […] The RSV strain A-2^50 was used. The RSV stock was prepared as described by Hallak et al.^51 and stored at −70° C. in the presence of 40% sucrose^52.
(§2) The viral infectivity (the plaque number-reduction) assay and the plaque size-reduction assay were carried out as described previously^17. […] Subsequently, the cells were washed with 2 mL of EMEM and overlaid with 1% methylcellulose solution in EMEM. The plaques were visualized by staining with crystal violet solution after 2 (HSV-2) or 3 (HSV-1) days of incubation at 37° C. […] When the compounds were screened for anti-HSV or anti-RSV activity, mixtures of 200 PFU of the virus and the test compound (100 μg/mL) in serum-free EMEM were incubated for 10 min at room temperature before addition to cells and during the entire period of viral infection of cells and the development of viral plaques. In the plaque size-reduction assay, the compounds were added to cells (in methylcellulose overlay medium) after 2 h period of virus infection of cells in the absence of the inhibitor. After 2-3 days of incubation at 37° C., the viral plaques were visualized by staining the cells with 1% solution of crystal violet. For each compound tested, the images of twenty neighboring plaques were captured using a Leica DC300 digital camera attached to a Leitz-Wetzlar Diavert microscope. The area of each plaque was determined using IM500 image software (Leica). Similar protocols were used for RSV, except that the assays were performed in HEp-2 cells and DMEM supplemented with 2% heat-inactivated fetal calf serum was used instead of EMEM.

HSV-2 = experiment: Anti-HSV screening assay (viral plaques), HSV-2; assay type: cell-based; details: 100 μg/mL, viral plaques relative to mock treated controls
Method: as §1, §2

RSV = experiment: Anti-RSV screening assay (viral plaques); assay type: cell-based; details: 100 μg/mL, viral plaques relative to mock treated controls
Method: as §1, §2

HSV-1 [2] = experiment: Viral plaque number-reduction assay, HSV-1
Method: as §1, §2

GMK AH1 cells = experiment: Cytotoxicity assay, GMK AH1; assay type: cell-based, African green monkey; details: cell viability reduced by 50%
Method: The assay was performed in GMK AH1 cells that had been seeded in 96 well cluster plates and reached approximately 80-90% confluence at day 2 of culture. The cells were washed with EMEM and incubated for 24 h at 37° C. with 100 μL of serial two-fold dilutions of the test compound in serum-free EMEM. The effect of the test compound on cell viability was measured by using the tetrazolium-based CellTiter96 assay according to the manufacturer's protocol (Promega, Madison, Wis., USA).

[3] = system: HUVEC proliferation induced by FGF-2; experiment: Growth factor induced endothelial cell proliferation assay, FGF-2; assay type: cell-based, human; details: 72 h, read-out: FGF-2 (IC50) inhibition of HUVEC proliferation
Procedure, shortened: (§3)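 HUVECs at 1-3×10^3 per well in EGM with 2% FBS and gentamicin (complete EGM for VEGF groups in a later study) were treated with growth factor plus compound. After 70 h, proliferation was read by absorbance at 490 nm following 2 h with CellTitre 96 Aqueous One reagent.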

HUVECs = experiment: Matrigel microtubule formation assay; assay type: cell-based, human; details: for Microtubule Formation % inhibition at 10 μM: relative to controls
Method: Medium for the proliferation studies was prepared using EGM with 2% FBS and gentamicin only. In a later study, complete EGM was used for the VEGF groups in an attempt to enhance the proliferative index of VEGF-stimulated groups. For the tube formation assay, complete medium was used with only heparin omitted. Compounds under investigation were weighed out from powder stocks and diluted in PBS to 10 mM stock solutions and stored at −80° C. For experiments, compounds were subsequently diluted in EBM-2 medium (supplemented with 2% FBS and gentamicin) to various working concentration as required.
The tube formation assay was performed essentially as described by Malinda et al., with modifications.^41 HUVECs in the fourth or fifth passage at 70-80% confluence were harvested and resuspended in Lonza endothelial growth medium (EGM2) containing all supplements as directed by manufacturer, except heparin, at a cell density of 4×10^5 cells per mL. For each set of triplicate wells, 200 μL of cells (4×10^5/mL) were treated with an equal volume of compound to obtain final concentrations of 10, 50 or 100 μM (thus ensuring 1×300 μL are available for each condition). A 100 μL aliquot of cells was then plated onto 96-well plates pre-coated with growth factor reduced Matrigel™ (50 μL for 30 min followed by a further 30 μL for 1 h) and incubated for 18-22 h. Tube formation was examined by phase-contrast microscopy and images were collected using an Olympus C5050 digital camera. Tube formation inhibition was quantitated manually from images by recording the total number of nodes connecting 3 or more tubules. Untreated HUVECs were used as a control for normal cell growth and tube formation in Matrigel.

[4] = system: HUVEC proliferation induced by VEGF; experiment: Growth factor induced endothelial cell proliferation assay, VEGF; assay type: cell-based, human; details: 72 h, read-out: VEGF (IC50) inhibition of HUVEC proliferation
Procedure, shortened: as §3

[5] = system: HUVEC proliferation induced by FGF-1; experiment: Growth factor induced endothelial cell proliferation assay, FGF-1; assay type: cell-based, human; details: 72 h, read-out: FGF-1 (IC50) inhibition of HUVEC proliferation
Procedure, shortened: as §3

SMILES | IC50 ([3]; Homo sapiens, HUVEC) [nM] | IC50 [3] [nM] | Microtubule Formation % inhibition at 10 μM (HUVECs) [%] | IC50 [4] [nM] | IC50 [5] [nM] | other results
CCCCCCCCCCCCOC1OC(COS(=O)(=O)O)C(OS(=O)(=O)O)C(OS(=O)(=O)O)C1OC1OC(COS(=O)(=O)O)C(OS(=O)(=O)O)C(OC2OC(COS(=O)(=O)O)C(OS(=O)(=O)O)C(OC3OC(COS(=O)(=O)O)C(OS(=O)(=O)O)C(OC4OC(COS(=O)(=O)O)C(OS(=O)(=O)O)C(OS(=O)(=O)O)C4OS(=O)(=O)O)C3OS(=O)(=O)O)C2OS(=O)(=O)O)C1OS(=O)(=O)O [Compound 4, Dodecyl 2,3,4,6-tetra-O-sodium sulfonato-α-D-mannopyranosyl-(1→3)-2,4,6-tri-O-sodium sulfonato-α-D-mannopyranosyl-(1→3)-2,4,6-tri-O-sodium sulfonato-α-D-mannopyranosyl-(1→3)-2,4,6-tri-O-sodium sulfonato-α-D-mannopyranosyl-(1→2)-3,4,6-tri-O-sodium sulfonato-α-D-mannopyranoside] |  |  |  |  |  | Cytotoxicity CC50 HEp-2 (HEp-2 cells): >400 µg/mL; Residual infectivity (%) HSV-1 (HSV-1 [1]): 2%; Residual infectivity (%) HSV-2 (HSV-2): 0.7%; Residual infectivity (%) RSV (RSV): 0%; Selective index CC50/IC50 HSV-1 (HSV-1 [2]; GMK AH1 cells): > 190; Cytotoxicity CC50 GMK AH1 (GMK AH1 cells): >400 µg/mL
CC(C)CCC[C@@H](C)[C@H]1CC[C@H]2[C@@H]3CC[C@H]4C[C@@H](O[C@H]5O[C@H](COS(=O)(=O)O)[C@@H](OS(=O)(=O)O)[C@H](OS(=O)(=O)O)[C@@H]5O[C@H]5O[C@H](COS(=O)(=O)O)[C@@H](OS(=O)(=O)O)[C@H](OS(=O)(=O)O)[C@@H]5OS(=O)(=O)O)CC[C@]4(C)[C@H]3CC[C@]12C [Compound 33, 3β-Cholestanyl 2,3,4,6-tetra-O-sodium sulfonato-α-D-mannopyranosyl-(1→2)-3,4,6-tri-O-sodium sulfonato-α-D-mannopyranoside] | 2220 |  |  |  |  | inhibition at 10 µM (HUVECs; Homo sapiens, HUVEC, read-out: Microtubule Formation % inhibition at 10 μM): 14%; IC50 ([4]; Homo sapiens, HUVEC): 1850 nM; IC50 ([5]; Homo sapiens, HUVEC): > 10000 nM
CC(C)CCC[C@@H](C)[C@H]1CC[C@H]2[C@@H]3CCC4CC(O[C@H]5O[C@H](COS(=O)(=O)[O-])[C@@H](OS(=O)(=O)[O-])[C@H](O[C@H]6O[C@H](COS(=O)(=O)[O-])[C@@H](OS(=O)(=O)[O-])[C@H](O[C@H]7O[C@H](COS(=O)(=O)[O-])[C@@H](OS(=O)(=O)[O-])[C@H](OS(=O)(=O)[O-])[C@@H]7OS(=O)(=O)[O-])[C@@H]6OS(=O)(=O)[O-])[C@@H]5OS(=O)(=O)[O-])CC[C@]4(C)[C@H]3CC[C@]12C.[Na+].[Na+].[Na+].[Na+].[Na+].[Na+].[Na+].[Na+].[Na+].[Na+] (stereo partly drawn) [Compound 56, 3′-Cholestanyl 2,3,4,6-tetra-O-sodium sulfonato-α-D-mannopyranosyl-(1→3)-2,4,6-tri-O-sodium sulfonato-α-D-mannopyranosyl-(1→3)-3,4,6-tri-O-sodium sulfonato-α-D-mannopyranoside] |  | 1800 | 67 | 1720 | 2520 | 
CC(C)CCC[C@@H](C)[C@H]1CC[C@H]2[C@@H]3CCC4C[C@@H](OCc5cn(CCCO[C@H]6O[C@H](COS(=O)(=O)[O-])[C@@H](OS(=O)(=O)[O-])[C@H](O[C@H]7O[C@H](COS(=O)(=O)[O-])[C@@H](OS(=O)(=O)[O-])[C@H](O[C@H]8O[C@H](COS(=O)(=O)[O-])[C@@H](OS(=O)(=O)[O-])[C@H](OS(=O)(=O)[O-])[C@@H]8OS(=O)(=O)[O-])[C@@H]7OS(=O)(=O)[O-])[C@@H]6OS(=O)(=O)[O-])nn5)CC[C@]4(C)[C@H]3CC[C@]12C.[Na+].[Na+].[Na+].[Na+].[Na+].[Na+].[Na+].[Na+].[Na+].[Na+] (stereo partly drawn) [Compound 60, 3-{4-(Cholestan-3β-yl-oxymethyl)-[1,2,3]triazol-1-yl}propyl 2,3,4,6-tetra-O-sodium sulfonato-α-D-mannopyranosyl-(1→3)-2,4,6-tri-O-sodium sulfonato-α-D-mannopyranosyl-(1→3)-3,4,6-tri-O-sodium sulfonato-α-D-mannopyranoside] |  | 1220 | 49 | 1440 | 2610 | 
CC(C)CCC[C@@H](C)[C@H]1CC[C@H]2[C@@H]3CCC4CC(OCc5cn([C@@H]6O[C@H](COS(=O)(=O)[O-])[C@@H](O[C@H]7O[C@H](COS(=O)(=O)[O-])[C@@H](O[C@H]8O[C@H](COS(=O)(=O)[O-])[C@@H](OS(=O)(=O)[O-])[C@H](OS(=O)(=O)[O-])[C@H]8OS(=O)(=O)[O-])[C@H](OS(=O)(=O)[O-])[C@H]7OS(=O)(=O)[O-])[C@H](OS(=O)(=O)[O-])[C@H]6OS(=O)(=O)[O-])nn5)CC[C@]4(C)[C@H]3CC[C@]12C.[Na+].[Na+].[Na+].[Na+].[Na+].[Na+].[Na+].[Na+].[Na+].[Na+] (stereo partly drawn) [Compound 70, 4-(Cholestan-3-yl-oxymethyl)[1,2,3]triazol-1-yl 2,3,4,6-tetra-O-sodium sulfonato-α-D-glucopyranosyl-(1→4)-2,3,6-tri-O-sodium sulfonato-α-D-glucopyranosyl-(1→4)-1-deoxy-2,3,6-tri-O-sodium sulfonato-β-D-glucopyranoside] |  | 640 | 52 | 2200 | 2300 | HSV-1 KOS321 strain IC50 (HSV-1 [2]; plaques in GMK AH1 cells (Table 9, footnote b)): 0.25 µg/mL
CCCCCCCCCCCCCCCCCC(=O)NCCCO[C@@H]1O[C@H](COS(=O)(=O)[O-])[C@@H](O[C@H]2O[C@H](COS(=O)(=O)[O-])[C@@H](O[C@H]3O[C@H](COS(=O)(=O)[O-])[C@@H](O[C@H]4O[C@H](COS(=O)(=O)[O-])[C@@H](OS(=O)(=O)[O-])[C@H](OS(=O)(=O)[O-])[C@H]4OS(=O)(=O)[O-])[C@H](OS(=O)(=O)[O-])[C@H]3OS(=O)(=O)[O-])[C@H](OS(=O)(=O)[O-])[C@H]2OS(=O)(=O)[O-])[C@H](OS(=O)(=O)[O-])[C@H]1OS(=O)(=O)[O-].[Na+].[Na+].[Na+].[Na+].[Na+].[Na+].[Na+].[Na+].[Na+].[Na+].[Na+].[Na+].[Na+] [Compound 128, 3-Stearamidopropyl 2,3,4,6-tetra-O-sulfo-α-D-glucopyranosyl-(1→4)-2,3,6-tri-O-sulfo-α-D-glucopyranosyl-(1→4)-2,3,6-tri-O-sulfo-α-D-glucopyranosyl-(1→4)-2,3,6-tri-O-sulfo-β-D-glucopyranoside, tridecasodium salt] | 770 |  |  |  |  | 
